Columns and labels:
Assay type in all cases: biochemical
JAK1 = target: T1, JAK1 (Homo sapiens, UniProt P23458); experiment: JAK1 kinase assay (HTRF, inhibition of phosphorylation of a synthetic peptide); conditions: catalytic domain aa 850-1154, GST-tag; 7 μM ATP (Km); read-out: JAK1 kinase inhibitory activity (EC50)
T1 construct: JAK1 (aa 850-1154) and TYK2 (aa 871-1187) are expressed with an N-terminally fused GST-tag; GST (N); purchased Carna Biosciences, Inc; host or cells: baculovirus expression system
Protocol: (§1) JAK1, JAK2, JAK3 and TYK2 Kinase Assays:
(§2) Human baculovirus-expressed JAK1, 2, 3 and TYK2 were purchased from Carna Biosciences, Inc. All four purified enzymes contain only the catalytic domain. JAK1 (aa 850-1154) and TYK2 (aa 871-1187) are expressed with an N-terminally fused GST-tag, and JAK2 and JAK3 with an N-terminally fused His-tag. Inhibition of phosphorylation of a synthetic peptide was measured in an HTRF-based assay using the TK substrate-Biotin from the CisbioHTRFKinEASE TK kit. First, 2 μl of TK solution (TK substrate-biotin in kinase buffer [1× enzymatic buffer from HTRFKinEASE TK kit, 1 mM DTT]) is added to a plate containing 1 μl prediluted compound (final assay concentration DMSO: 0.75%). Then, 5 μl kinase-ATP mix (prepared in kinase buffer) is added to the wells and the plates are incubated at RT for 20-30 min. For all four kinases a concentration of ATP that corresponded to the Km for ATP was used. The final concentrations of buffers, substrate, kinase and ATP were: JAK1: 50 mMHepes buffer pH 7.0, 0.01% BSA, 10 mM MgCl2, 1 mM DTT, 7 μM ATP, 50 nMSEB, 1 μM TK Substrate-Biotin and 5 ng JAK1; JAK2: 50 mM Hepes buffer pH 7.0, 0.01% BSA, 5 mM MgCl2, 1 mM DTT, 4 μM ATP, 1 μM TK Substrate-Biotin and 0.1 ng JAK2; JAK3: 50 mMHepes buffer pH 7.0, 0.01% BSA, 5 mM MgCl2, 1 mM DTT, 2 μM ATP, 1 μM TK Substrate-Biotin and 0.3 ng JAK3; TYK2: 50 mMHepes buffer pH 7.0, 0.01% BSA, 5 mM MgCl2, 1 mM DTT, 13 μM ATP, 50 nMSEB, 1 μM TK Substrate-Biotin and 0.8 ng TYK2. Thereafter, the kinase reaction is stopped by adding 4 μl detection mix (final concentrations: 50 mM Hepes buffer pH 7.0, 0.01% BSA, 0.8 M KF, 20 mM EDTA, 42 nM Streptavidin-XL665 and 1:400 STKAbCryptate) and the plates are incubated overnight in the dark. The HTRF signal is read using an Envision plate reader.

JAK2 = target: T2, JAK2 (Homo sapiens, UniProt O60674); experiment: JAK2 kinase assay (HTRF, inhibition of phosphorylation of a synthetic peptide); conditions: catalytic domain, His-tag; 4 μM ATP (Km); read-out: JAK2 kinase inhibitory activity (EC50)
T2 construct: All four purified enzymes contain only the catalytic domain; His (N); purchased Carna Biosciences, Inc; host or cells: baculovirus expression system
Protocol: as §1, §2

JAK3 = target: T3, JAK3 (Homo sapiens, UniProt P52333); experiment: JAK3 kinase assay (HTRF, inhibition of phosphorylation of a synthetic peptide); conditions: catalytic domain, His-tag; 2 μM ATP (Km); read-out: JAK3 kinase inhibitory activity (EC50)
T3 construct: All four purified enzymes contain only the catalytic domain; His (N); purchased Carna Biosciences, Inc; host or cells: baculovirus expression system
Protocol: as §1, §2

T1 sequence (P23458 850-1154): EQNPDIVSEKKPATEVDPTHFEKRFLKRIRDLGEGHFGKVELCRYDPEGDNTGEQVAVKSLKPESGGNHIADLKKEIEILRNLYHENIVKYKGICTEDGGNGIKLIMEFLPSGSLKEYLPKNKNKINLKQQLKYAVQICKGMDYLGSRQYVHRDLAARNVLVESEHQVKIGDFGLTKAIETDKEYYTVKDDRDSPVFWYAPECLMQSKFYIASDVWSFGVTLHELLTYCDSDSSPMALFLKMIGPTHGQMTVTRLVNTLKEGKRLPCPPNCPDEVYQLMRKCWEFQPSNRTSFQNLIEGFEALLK
T3 sequence (P52333 822-1111 limits assumed): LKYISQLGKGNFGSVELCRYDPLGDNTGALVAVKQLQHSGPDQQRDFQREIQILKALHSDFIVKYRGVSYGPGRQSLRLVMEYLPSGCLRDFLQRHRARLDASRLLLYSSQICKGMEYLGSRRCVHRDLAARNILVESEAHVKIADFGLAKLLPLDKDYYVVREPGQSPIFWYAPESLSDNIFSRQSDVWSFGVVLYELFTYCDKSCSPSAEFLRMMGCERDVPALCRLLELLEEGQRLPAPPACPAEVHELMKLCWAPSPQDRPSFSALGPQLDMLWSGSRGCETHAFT
T2 sequence (O60674 849-1124 limits assumed): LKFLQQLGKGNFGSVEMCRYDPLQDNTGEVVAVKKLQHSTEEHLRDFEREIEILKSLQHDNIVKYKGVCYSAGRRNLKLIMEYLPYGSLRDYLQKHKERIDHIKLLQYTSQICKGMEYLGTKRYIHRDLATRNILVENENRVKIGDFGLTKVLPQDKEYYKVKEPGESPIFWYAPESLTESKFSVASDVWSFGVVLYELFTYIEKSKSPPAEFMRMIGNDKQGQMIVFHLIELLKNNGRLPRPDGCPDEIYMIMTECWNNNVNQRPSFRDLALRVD

SMILES | EC50 (JAK1) | EC50 (JAK2) | EC50 (JAK3)
O=C1OCCN1CC(=O)N1CCCN(c2ncnc3[nH]ccc23)CC12CC2 [Example 86, 3-[2-oxo-2-[5-(7H-pyrrolo[2,3-d]pyrimidin-4-yl)-5,9-diazaspiro[2.6]nonan-9-yl]ethyl]oxazolidin-2-one] | > 1000 nM | 100 to 1000 nM | > 1000 nM
O=C(c1ccccc1F)N1CCN(c2ncnc3[nH]ccc23)CC2(CC2)C1 [Example 111, (2-fluorophenyl)-[5-(7H-pyrrolo[2,3-d]pyrimidin-4-yl)-5,8-diazaspiro[2.6]nonan-8-yl]methanone] | 100 to 1000 nM | < 100 nM | > 1000 nM
Cc1ccncc1C(=O)N1CCN(c2ncnc3[nH]ccc23)CC2(CC2)C1 [Example 150, (4-methyl-3-pyridyl)-[5-(7H-pyrrolo[2,3-d]pyrimidin-4-yl)-5,8-diazaspiro[2.6]nonan-8-yl]methanone] | 100 to 1000 nM | > 1000 nM | > 1000 nM
O=C(Cc1ccccc1Cl)N1CCCN(c2ncnc3[nH]ccc23)CC12CC2 [Example 174, 2-(2-chlorophenyl)-1-[5-(7H-pyrrolo[2,3-d]pyrimidin-4-yl)-5,9-diazaspiro[2.6]nonan-9-yl]ethanone] | 100 to 1000 nM | 100 to 1000 nM | > 1000 nM
Cc1ncccc1C(=O)N1CCN(c2ncnc3[nH]ccc23)CC2(CC2)C1 [Example 135, (2-methyl-3-pyridyl)-[5-(7H-pyrrolo[2,3-d]pyrimidin-4-yl)-5,8-diazaspiro[2.6]nonan-8-yl]methanone] | > 1000 nM | > 1000 nM | > 1000 nM
Cc1ccc(S(=O)(=O)N2CCN(c3ncnc4[nH]ccc34)CC3(CC3)C2)cc1 [Example 96, 4-[8-(p-tolylsulfonyl)-5,8-diazaspiro[2.6]nonan-5-yl]-7H-pyrrolo[2,3-d]pyrimidine] | 100 to 1000 nM | 100 to 1000 nM | > 1000 nM
O=C(Cc1ccccn1)N1CCN(c2ncnc3[nH]ccc23)CC2(CC2)C1 [Example 167, 2-(2-pyridyl)-1-[5-(7H-pyrrolo[2,3-d]pyrimidin-4-yl)-5,8-diazaspiro[2.6]nonan-8-yl]ethanone] | 100 to 1000 nM | 100 to 1000 nM | > 1000 nM
O=C(c1ccccc1Cl)N1CCN(c2ncnc3[nH]ccc23)CC2(CC2)C1 [Example 185, (2-chlorophenyl)-[5-(7H-pyrrolo[2,3-d]pyrimidin-4-yl)-5,8-diazaspiro[2.6]nonan-8-yl]methanone] | 100 to 1000 nM | 100 to 1000 nM | > 1000 nM
O=C(Cc1cscn1)N1CCN(c2ncnc3[nH]ccc23)CC2(CC2)C1 [Example 88, 1-[5-(7H-pyrrolo[2,3-d]pyrimidin-4-yl)-5,8-diazaspiro[2.6]nonan-8-yl]-2-thiazol-4-yl-ethanone] | 100 to 1000 nM | 100 to 1000 nM | 100 to 1000 nM
Cc1[nH]ncc1C(=O)N1CCCN(c2ncnc3[nH]ccc23)CC12CC2 [Example 207, (5-methyl-1H-pyrazol-4-yl)-[5-(7H-pyrrolo[2,3-d]pyrimidin-4-yl)-5,9-diazaspiro[2.6]nonan-9-yl]methanone] | > 1000 nM | 100 to 1000 nM | > 1000 nM
O=C(Cc1nnn[nH]1)N1CCCN(c2ncnc3[nH]ccc23)CC12CC2 [Example 226, 1-[5-(7H-pyrrolo[2,3-d]pyrimidin-4-yl)-5,9-diazaspiro[2.6]nonan-9-yl]-2-(1H-tetrazol-5-yl)ethanone] | > 1000 nM | 100 to 1000 nM | > 1000 nM
N#CCCN(CCC#N)C(=O)N1CCN(c2ncnc3[nH]ccc23)CC2(CC2)C1 [Example 225, N,N-bis(2-cyanoethyl)-5-(7H-pyrrolo[2,3-d]pyrimidin-4-yl)-5,8-diazaspiro[2.6]nonane-8-carboxamide] | > 1000 nM | 100 to 1000 nM | 100 to 1000 nM
Cc1nnc(C(=O)N2CCN(c3ncnc4[nH]ccc34)CC3(CC3)C2)o1 [Example 194, (5-methyl-1,3,4-oxadiazol-2-yl)-[5-(7H-pyrrolo[2,3-d]pyrimidin-4-yl)-5,8-diazaspiro[2.6]nonan-8-yl]methanone] | 100 to 1000 nM | 100 to 1000 nM | > 1000 nM
O=C(c1cc[nH]n1)N1CCN(c2ncnc3[nH]ccc23)CC2(CC2)C1 [Example 182, 1H-pyrazol-3-yl-[5-(7H-pyrrolo[2,3-d]pyrimidin-4-yl)-5,8-diazaspiro[2.6]nonan-8-yl]methanone] | 100 to 1000 nM | 100 to 1000 nM | 100 to 1000 nM
O=C(c1cncc(F)c1)N1CCN(c2ncnc3[nH]ccc23)CC2(CC2)C1 [Example 213, (5-fluoro-3-pyridyl)-[5-(7H-pyrrolo[2,3-d]pyrimidin-4-yl)-5,8-diazaspiro[2.6]nonan-8-yl]methanone] | 100 to 1000 nM | 100 to 1000 nM | > 1000 nM
N#C[C@H]1CCCN1C(=O)N1CCN(c2ncnc3[nH]ccc23)CC2(CC2)C1 [Example 221, (2R)-1-[5-(7H-pyrrolo[2,3-d]pyrimidin-4-yl)-5,8-diazaspiro[2.6]nonane-8-carbonyl]pyrrolidine-2-carbonitrile] | 100 to 1000 nM | < 100 nM | 100 to 1000 nM

Results, then the compound that gave them:

EC50 (JAK1) | EC50 (JAK2) | EC50 (JAK3) | SMILES
100 to 1000 nM | 100 to 1000 nM | 100 to 1000 nM | O=C(c1ccno1)N1CCN(c2ncnc3[nH]ccc23)CC2(CC2)C1 [Example 177, isoxazol-5-yl-[5-(7H-pyrrolo[2,3-d]pyrimidin-4-yl)-5,8-diazaspiro[2.6]nonan-8-yl]methanone]
< 100 nM | < 100 nM | 100 to 1000 nM | N#Cc1c[nH]c(C(=O)N2CCN(c3ncnc4[nH]ccc34)CC3(CC3)C2)c1 [Example 208, 5-[5-(7H-pyrrolo[2,3-d]pyrimidin-4-yl)-5,8-diazaspiro[2.6]nonane-8-carbonyl]-1H-pyrrole-3-carbonitrile]
100 to 1000 nM | 100 to 1000 nM | 100 to 1000 nM | CN1CCN(CC(=O)N2CCN(c3ncnc4[nH]ccc34)CC3(CC3)C2)C1=O [Example 82, 1-methyl-3-[2-oxo-2-[5-(7H-pyrrolo[2,3-d]pyrimidin-4-yl)-5,8-diazaspiro[2.6]nonan-8-yl]ethyl]imidazolidin-2-one]
100 to 1000 nM | 100 to 1000 nM | > 1000 nM | O=C(c1ccccc1Cl)N1CCCN(c2ncnc3[nH]ccc23)CC12CC2 [Example 178, (2-chlorophenyl)-[5-(7H-pyrrolo[2,3-d]pyrimidin-4-yl)-5,9-diazaspiro[2.6]nonan-9-yl]methanone]
100 to 1000 nM | 100 to 1000 nM | > 1000 nM | Cc1nnsc1C(=O)N1CCN(c2ncnc3[nH]ccc23)CC2(CC2)C1 [Example 146, (4-methylthiadiazol-5-yl)-[5-(7H-pyrrolo[2,3-d]pyrimidin-4-yl)-5,8-diazaspiro[2.6]nonan-8-yl]methanone]
100 to 1000 nM | 100 to 1000 nM | 100 to 1000 nM | Cc1nocc1C(=O)N1CCN(c2ncnc3[nH]ccc23)CC2(CC2)C1 [Example 244, (3-methylisoxazol-4-yl)-[5-(7H-pyrrolo[2,3-d]pyrimidin-4-yl)-5,8-diazaspiro[2.6]nonan-8-yl]methanone]
100 to 1000 nM | 100 to 1000 nM | > 1000 nM | O=C(c1nc[nH]n1)N1CCN(c2ncnc3[nH]ccc23)CC2(CC2)C1 [Example 195, [5-(7H-pyrrolo[2,3-d]pyrimidin-4-yl)-5,8-diazaspiro[2.6]nonan-8-yl]-(1H-1,2,4-triazol-3-yl)methanone]
100 to 1000 nM | < 100 nM | 100 to 1000 nM | O=C(Cc1ccc(Cl)cc1Cl)N1CCN(c2ncnc3[nH]ccc23)CC2(CC2)C1 [Example 270, 2-(2,4-dichlorophenyl)-1-[5-(7H-pyrrolo[2,3-d]pyrimidin-4-yl)-5,8-diazaspiro[2.6]nonan-8-yl]ethanone]
100 to 1000 nM | < 100 nM | > 1000 nM | Cc1cc(C(=O)N2CCCN(c3ncnc4[nH]ccc34)CC23CC3)n(C)n1 [Example 193, (2,5-dimethylpyrazol-3-yl)-[5-(7H-pyrrolo[2,3-d]pyrimidin-4-yl)-5,9-diazaspiro[2.6]nonan-9-yl]methanone]

— US9586961B2, “Homopiperazine derivatives as protein tyrosine kinase inhibitors and pharmaceutical use thereof” (LEO PHARMA A/S, priority 2010, dated 2017)
